Assay results from patent publication US11833129B2, “Thiophene compound for treatment of exfoliating glaucoma” (Avoscience, LLC, priority 2013, dated 2023).

Assays:
[1] = tested on: Bacillus subtilis (Ehrenberg) Cohn; settings: cited from earlier work
[2] = tested on: Staphylococcus aureus Rosenbach; settings: cited from earlier work
[3] = tested on: MDA-MB231 invasive breast tumor cells; test: Membrane Invasion Culture System (MICS) chamber tumor cell migration; type: cell-based, human; settings: 5 or 10 μl/10 ml Formula I(n), 24 hours, vs untreated and methanol controls
Procedure: FIG. 1A is graph of cell migration using the breast cancer cell line MDA-MB231 for cells treated with 0 μl/10 ml, 5 μl/10 ml and 10 μl/10 ml Formula I(n). The effect of Formula I(n) on the migration of MDA-MB231 invasive breast tumor cells was tested using the Membrane Invasion Culture System (MICS) chamber. The Membrane Invasion Culture System (MICS) chamber was assembled with Crosstex 10 μm polycarbonate membrane pre-soaked in gelatin for 12 hours. The lower wells were fully loaded with DMEM supplemented with 10% FBS and 0, 5, 10 μl/10 ml Formula I(n) diluted in 0-20 μl/10 ml methanol. The upper wells were loaded with 1 ml serum-free phenol-red-free media and corresponding Formula I(n)/methanol solution. 100,000 cells/well were loaded and the chamber was incubated at 37° C. for 24 hours. […] The membrane was rinsed in water, placed onto a microscope slide pre-treated with immersion oil, covered with a coverslip and cells were counted under a light microscope. Each sample was measured in triplicate. […]
The Membrane Invasion Culture System (MICS) chamber was assembled with Crosstex 10 μm polycarbonate membrane pre-soaked in gelatin for 12 hours. […] The membrane was rinsed in water, placed onto a microscope slide pre-treated with immersion oil, covered with a coverslip and cells were counted under a light microscope. Each sample was measured in triplicate.

[4] = tested on: Hs578T invasive breast tumor cells; test: as above; type: cell-based, human; settings: 5 or 10 μl/10 ml Formula I(n), 24 hours, vs untreated and methanol controls
[5] = tested on: foreskin fibroblasts (Clonetics); test: in vitro scratch assay, fibroblast migration; type: cell-based
Procedure: FIG. 2A is a micrograph of an in vitro scratch assay using fibroblasts showing the migration of fibroblasts at 0 hours without treatment of Formula I(n). Confluent cultures of foreskin fibroblasts (Clonetics) were scratched with the tip of a 200 μl pipet tip, rinsed once with PBS and media was changed to serum free media containing 0 μl/10 ml Formula I(n). Pictures were taken at the indicated time (0, 12, or 24 hours) following scratching and the distance between the migrating lips were measured in pixels. FIG. 2B is a micrograph of an in vitro scratch assay using fibroblasts showing the migration of fibroblasts at 0 hours upon treatment with 5 μl/10 ml Formula I(n). […]
FIG. 3 is a graph of the distance between the migrating lips (as measured in pixels) vs. the time (hours) after administration of Formula I(n). […]
Confluent cultures of foreskin fibroblasts (Clonetics) were scratched with the tip of a 200 μl pipet tip, rinsed once with PBS and media was changed to serum free media containing 0 (FIG. 2A, 2D, 2G) 5 (FIG. 2B, 2E, 2H) or 10 (FIG. 2C, 2F) μl/10 ml Formula I(n). Pictures were taken at 0 (FIG. 2A, 2B, 2C), 12 (FIG. 2D, 2E, 2F) or 24 (FIG. 2G, 2H) hours following scratching and the distance between the migrating lips were measured in pixels. FIG. 3 is a graph of the distance between the migrating lips (as measured in pixels) vs. the time (hours) after administration of Formula I(n).

[6] = tested on: preconfluent neonatal foreskin fibroblast cells; test: cytoskeletal reorganization, phalloidin/propidium iodide staining; type: cell-based; settings: pre-confluent fibroblasts; 5 or 10 μl Formula I(n); 24 hours; compared to controls
Procedure: (§1) FIG. 4A is a micrograph of preconfluent neonatal foreskin fibroblast cells that have not been treated with Formula I(n). After 24 hours of mock treatment, cells were stained with phalloidin (actin-green) and propidium iodide (nuclei-red). FIG. 4B is a micrograph of preconfluent neonatal foreskin fibroblast cells that have been treated with 5 μl/10 ml Formula I(n). After 24 hours of treatment, cells were stained with phalloidin (actin-green) and propidium iodide (nuclei-red). FIG. 4C is a micrograph of preconfluent neonatal foreskin fibroblast cells that have been treated with 10 μl/10 ml Formula I(n). After 24 hours of treatment, cells were stained with phalloidin (actin-green) and propidium iodide (nuclei-red). FIG. 4D is a micrograph of confluent MDA-MB231 breast cancer cells that have not been treated with Formula I(n). After 24 hours of mock treatment, cells were stained with phalloidin (actin-green) and propidium iodide (nuclei-red). FIG. 4E is a micrograph of confluent MDA-MB231 breast cancer cells that have been treated with 5 μl/10 ml Formula I(n). After 24 hours of treatment, cells were stained with phalloidin (actin-green) and propidium iodide (nuclei-red). FIG. 4F is a micrograph of confluent MDA-MB231 breast cancer cells that have been treated with 10 μl/10 ml Formula I(n). After 24 hours of treatment, cells were stained with phalloidin (actin-green) and propidium iodide (nuclei-red). FIG. 4G is a micrograph of preconfluent MDA-MB231 breast cancer cells that have not been treated with Formula I(n). After 24 hours of mock treatment, cells were stained with phalloidin (actin-green) and propidium iodide (nuclei-red). FIG. 4H is a micrograph of preconfluent MDA-MB231 breast cancer cells that have been treated with 5 μl/10 ml Formula I(n). After 24 hours of treatment, cells were stained with phalloidin (actin-green) and propidium iodide (nuclei-red).
Formula I(n) was next analyzed for its ability to induce cytoskeletal reorganization. […]

[7] = tested on: MDA-MB231 breast cancer cells; test: cytoskeletal reorganization and cell density, phalloidin/propidium iodide staining; type: cell-based, human; settings: 24 hours
Procedure: as §1, with “After 24 hours of treatment, cells were stained with phalloidin (actin-green) and propidium iodide (nuclei-red). FIG. 4G is a micrograph of preconfluent MDA-MB231 breast cancer cells that have not been treated with Formula I(n). After 24 hours of mock treatment, cells were stained with phalloidin (actin-green) and propidium iodide (nuclei-red). FIG. 4H is a micrograph of preconfluent MDA-MB231 breast cancer cells that have been treated with 5 μl/10 ml Formula I(n). After 24 hours of treatment, cells were stained with phalloidin (actin-green) and propidium iodide (nuclei-red).” left out

[8] = tested on: focal adhesion kinase (FAK) [Tyr576] phosphorylation; test: western blot of FAK[Tyr576] phosphorylation in Hs578T cells; type: cell-based, human; settings: 5 or 10 μl Formula I(n)/10 ml media, 3 days
Source text: FIG. 5 is a western blot showing the inhibition of the phosphorylation of focal adhesion kinase (FAK) in Hs578T cells treated with Formula I(n). Antibodies that detect the FAK protein that has been phosphorylated on pTyr576 were used at a dilution of 1:1000 (rabbit anti-FAK[pTyr576] from Biosource Inc., Camarillo, Calif., USA).
It has previously been shown that reduced migratory ability of various invasive breast tumor cells, including MDA-MB231, Hs578T (Payne S L, Fogelgren B, Hess A R, Seftor E A, Fong S F T, Csiszar K, Hendrix M J C, and Kirschmann D A. Lysyl oxidase regulates breast cancer cell migration and adhesion through a hydrogen peroxide-mediated mechanism. Cancer Res. 65:11429-36, 2005), and astrocytoma cells (Laczko R, Szauter K M, Jansen M K, Hollosi P, Muranyi M, Molnar J, Fong K S K, Hinek A, Csiszar K. Active lysyl oxidase (LOX) correlates with FAK/paxillin activation and migration in invasive astrocytes. Neuropathol Appl Neurobiol. 33:631-43, 2007) was due to reduced activation of Focal Adhesion Kinase (FAK) and diminished SRC and/or Paxillin signaling. In order to determine the status of FAK activation in Formula I(n) treated cells, the phosphorylation status of FAK[Tyr576] in Hs578T cells treated with 5 and 10 μl Formula I(n) was analyzed.
In these experiments, Hs578T cells were cultured in standard DMEM, 1× Antibiotics and 10% FBS. […]

silkworm larvae, B. mori = settings: concentrations in the diet up to 300 μg/g; cited from earlier work

## C=CCCCCCCCCCCCc1ccco1 [2-(trideca-12-enyl)furan]
[1]
  growth of bacteria: inhibited growth
[2]
  growth of bacteria: inhibited growth

## CCCCC/C=C\C/C=C\CCCCCCCc1ccco1 [Formula I(n)]
[3]
  tumor cell migration: significantly inhibited
[4]
  tumor cell migration: significantly inhibited
[5]; 5 or 10 μl/10 ml Formula I(n), 12 and 24 hours after scratching, serum free media
  migration of fibroblasts (distance between the migrating lips): reduced migration
[5]; higher Formula I(n) concentration (10 μl/10 ml)
  migration of fibroblasts (distance between the migrating lips): almost completely diminished
[6]
  filopodia: numerous filopodia
  staining at adhesion sites: reduced staining
  staining intensity of the actin cytoskeleton: concentration dependent increase
[7]; 5 or 10 μl Formula I(n)
  tumor cell morphology: elongated, spindle shaped
[7]; both Formula I(n) concentrations, both stages of cell confluency
  cell densities (tumor cell proliferation): significantly reduced
[8]
  FAK[Tyr576] phosphorylation: concentration dependent decrease

## CCCCC/C=C\C/C=C\CCCCCCCc1ccco1 [2-(8Z, 11Z-heptadecadienyl)furan, 2-(8Z,11Z-heptadecadienyl)furan]
Silkworm larvae, B. mori
  activity against silkworm larvae: no activity
